In PMC2749030, “New stably transfected bioluminescent cells expressing FLAG epitope-tagged estrogen receptors to study their chromatin recruitment” (BMC Biotechnology, 2009):

Experiments:
FLAG-ERα = biological target: T1, FLAG-ERα (Homo sapiens, UniProt P03372); test: ERE-driven luciferase transactivation assay in HELN-Fα cells; format: cell-based; settings: 16 hr stimulation, luciferase activity, 100% = 10 nM E2
T1 construct: expressed in transfected cells; pSG5-puro plasmid
T1 sequence (P03372 1-595): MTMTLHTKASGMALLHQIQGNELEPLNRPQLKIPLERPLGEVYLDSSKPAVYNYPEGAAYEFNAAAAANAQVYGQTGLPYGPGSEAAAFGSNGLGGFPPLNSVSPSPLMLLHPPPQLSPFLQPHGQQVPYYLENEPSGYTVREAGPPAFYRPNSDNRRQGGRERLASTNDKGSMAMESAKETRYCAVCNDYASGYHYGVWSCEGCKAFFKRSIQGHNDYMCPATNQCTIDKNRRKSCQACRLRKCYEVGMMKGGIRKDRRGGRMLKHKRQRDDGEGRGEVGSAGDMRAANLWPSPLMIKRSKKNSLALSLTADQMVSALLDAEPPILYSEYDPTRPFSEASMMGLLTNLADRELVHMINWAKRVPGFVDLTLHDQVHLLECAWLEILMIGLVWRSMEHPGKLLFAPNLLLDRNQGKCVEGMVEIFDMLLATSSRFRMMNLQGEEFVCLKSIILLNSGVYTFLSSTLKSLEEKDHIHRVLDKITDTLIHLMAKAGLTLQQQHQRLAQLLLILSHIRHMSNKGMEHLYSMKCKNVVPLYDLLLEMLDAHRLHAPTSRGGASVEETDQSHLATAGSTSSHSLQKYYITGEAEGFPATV
Experimental: (§1) Cells were incubated with compounds for 16 h. At the end of the incubation, effector containing medium was removed and replaced by 0.3 mM luciferin containing 6% DCC-FCS. At this concentration, luciferin diffuses into the cell and produces a stable luminescent signal. The 96-well plate was then introduced in a microplate luminometer (Microbeta, Wallac) and intact living cell luminescence measured for 2 s. EC50 values were evaluated using Graph-Pad Prism Statistics software (version 4.0; Graph-Pad Software Inc., San Diego, CA, USA).

FLAG-ERβ = biological target: T2, FLAG-ERβ (Homo sapiens, UniProt Q92731); test: ERE-driven luciferase transactivation assay in HELN-Fβ cells; format: cell-based; settings: HELN-Fβ versus HELN-Fα cells, 16 hr
T2 construct: FLAG-ERβ (full length version of 530 amino acids); expressed in transfected cells; pSG5-puro plasmid
Experimental: as §1

ERα = tested on: ERα; set-up: method as in PMID 11708925, PMID 11150164; settings: ERα selective agonist; RBA = 100 for estradiol; cited from earlier work

T2 sequence (Q92731 whole entry): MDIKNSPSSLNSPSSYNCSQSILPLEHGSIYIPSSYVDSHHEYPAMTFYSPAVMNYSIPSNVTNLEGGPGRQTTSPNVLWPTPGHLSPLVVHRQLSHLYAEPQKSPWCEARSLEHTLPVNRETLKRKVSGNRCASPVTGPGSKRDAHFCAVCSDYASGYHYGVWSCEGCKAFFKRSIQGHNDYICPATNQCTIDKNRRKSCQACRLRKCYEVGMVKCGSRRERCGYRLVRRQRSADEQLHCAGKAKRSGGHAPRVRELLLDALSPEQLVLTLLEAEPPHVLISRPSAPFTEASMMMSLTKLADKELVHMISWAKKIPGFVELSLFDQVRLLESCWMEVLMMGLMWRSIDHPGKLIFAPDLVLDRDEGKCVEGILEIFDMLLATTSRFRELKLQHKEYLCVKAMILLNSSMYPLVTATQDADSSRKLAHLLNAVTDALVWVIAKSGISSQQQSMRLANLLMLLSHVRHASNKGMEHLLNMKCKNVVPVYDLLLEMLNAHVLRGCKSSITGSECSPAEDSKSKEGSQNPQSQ

SMILES: CCCc1c(-c2ccc(O)cc2)nn(-c2ccc(O)cc2)c1-c1ccc(O)cc1 [PPT, Propylpyrazoletriol]
- EC50 (FLAG-ERα): 0.15 nM
- activation of ERβ (in words) (FLAG-ERβ): activated only ERα
- relative binding activity (RBA) (ERα): 49
